Measurements taken from the NIST ThermoML archive (doi:10.1021/acs.jced.7b00773).
± gives the expanded uncertainty stated by the source.

Settings: Liquid; for viscosity: Concentric cylinders viscometry

CCCCCCn1cc[n+](C)c1.N#C[B-](C#N)(C#N)C#N [1-hexyl-3-methylimidazolium tetracyanoborate]
100 kPa
Settings | viscosity [mPa·s]
293.15 K | 63.69 ± 3
303.15 K | 38.1 ± 1.8
313.15 K | 24.73 ± 1.1
323.15 K | 17.12 ± 0.8
333.15 K | 12.48 ± 0.58
343.15 K | 9.467 ± 0.44
353.15 K | 7.423 ± 0.34
363.15 K | 5.982 ± 0.28
373.15 K | 4.929 ± 0.23

Settings | mass density [kg/m3]
293.15 K, 100 kPa, Vibrating tube method | 994.4 ± 2.2
303.15 K, 100 kPa, Vibrating tube method | 987.3 ± 2.2
311.8 K, 10000 kPa, Bellows volumetry | 986.2 ± 2.5
311.8 K, 20000 kPa, Bellows volumetry | 991.5 ± 2.5
311.8 K, 30000 kPa, Bellows volumetry | 996.5 ± 2.5
311.8 K, 40000 kPa, Bellows volumetry | 1001.3 ± 2.5
311.8 K, 50000 kPa, Bellows volumetry | 1005.9 ± 2.5
311.8 K, 60000 kPa, Bellows volumetry | 1010.3 ± 2.5
311.8 K, 70000 kPa, Bellows volumetry | 1014.5 ± 2.5
311.8 K, 80000 kPa, Bellows volumetry | 1018.6 ± 2.5
311.8 K, 90000 kPa, Bellows volumetry | 1022.6 ± 2.5
311.8 K, 100000 kPa, Bellows volumetry | 1026.5 ± 2.5
311.8 K, 110000 kPa, Bellows volumetry | 1030.2 ± 2.5
311.8 K, 120000 kPa, Bellows volumetry | 1034 ± 2.5
311.8 K, 130000 kPa, Bellows volumetry | 1037.6 ± 2.5
311.8 K, 140000 kPa, Bellows volumetry | 1041.1 ± 2.5
311.8 K, 150000 kPa, Bellows volumetry | 1044.6 ± 2.5
311.8 K, 160000 kPa, Bellows volumetry | 1047.9 ± 2.5
311.8 K, 170000 kPa, Bellows volumetry | 1051.2 ± 2.5
311.8 K, 180000 kPa, Bellows volumetry | 1054.4 ± 2.5
311.8 K, 190000 kPa, Bellows volumetry | 1057.6 ± 2.5
311.8 K, 200000 kPa, Bellows volumetry | 1060.7 ± 2.5
313.15 K, 100 kPa, Vibrating tube method | 980.1 ± 2.2
323.15 K, 100 kPa, Vibrating tube method | 973 ± 2.2
331.8 K, 10000 kPa, Bellows volumetry | 972.5 ± 2.5
331.8 K, 20000 kPa, Bellows volumetry | 978.1 ± 2.5
331.8 K, 30000 kPa, Bellows volumetry | 983.3 ± 2.5
331.8 K, 40000 kPa, Bellows volumetry | 988.5 ± 2.5
331.8 K, 50000 kPa, Bellows volumetry | 993.3 ± 2.5
331.8 K, 60000 kPa, Bellows volumetry | 998 ± 2.5
331.8 K, 70000 kPa, Bellows volumetry | 1002.3 ± 2.5
331.8 K, 80000 kPa, Bellows volumetry | 1006.7 ± 2.5
331.8 K, 90000 kPa, Bellows volumetry | 1010.8 ± 2.5
331.8 K, 100000 kPa, Bellows volumetry | 1014.9 ± 2.5
331.8 K, 110000 kPa, Bellows volumetry | 1018.8 ± 2.5
331.8 K, 120000 kPa, Bellows volumetry | 1022.6 ± 2.5
331.8 K, 130000 kPa, Bellows volumetry | 1026.4 ± 2.5
331.8 K, 140000 kPa, Bellows volumetry | 1030 ± 2.5
331.8 K, 150000 kPa, Bellows volumetry | 1033.5 ± 2.5
331.8 K, 160000 kPa, Bellows volumetry | 1037 ± 2.5
331.8 K, 170000 kPa, Bellows volumetry | 1040.4 ± 2.5
331.8 K, 180000 kPa, Bellows volumetry | 1043.7 ± 2.5
331.8 K, 190000 kPa, Bellows volumetry | 1047 ± 2.5
331.8 K, 200000 kPa, Bellows volumetry | 1050.2 ± 2.5
333.15 K, 100 kPa, Vibrating tube method | 966 ± 2.2
343.15 K, 100 kPa, Vibrating tube method | 959.1 ± 2.2
351.6 K, 10000 kPa, Bellows volumetry | 959.1 ± 2.5
351.6 K, 20000 kPa, Bellows volumetry | 965.1 ± 2.5
351.6 K, 30000 kPa, Bellows volumetry | 970.6 ± 2.5
351.6 K, 40000 kPa, Bellows volumetry | 976 ± 2.5
351.6 K, 50000 kPa, Bellows volumetry | 981 ± 2.5
351.6 K, 60000 kPa, Bellows volumetry | 985.9 ± 2.5
351.6 K, 70000 kPa, Bellows volumetry | 990.5 ± 2.5
351.6 K, 80000 kPa, Bellows volumetry | 995.1 ± 2.5
351.6 K, 90000 kPa, Bellows volumetry | 999.4 ± 2.5
351.6 K, 100000 kPa, Bellows volumetry | 1003.6 ± 2.5
351.6 K, 110000 kPa, Bellows volumetry | 1007.6 ± 2.5
351.6 K, 120000 kPa, Bellows volumetry | 1011.5 ± 2.5
351.6 K, 130000 kPa, Bellows volumetry | 1015.4 ± 2.5
351.6 K, 140000 kPa, Bellows volumetry | 1019.2 ± 2.5
351.6 K, 150000 kPa, Bellows volumetry | 1022.9 ± 2.5
351.6 K, 160000 kPa, Bellows volumetry | 1026.4 ± 2.5
351.6 K, 170000 kPa, Bellows volumetry | 1029.9 ± 2.5
351.6 K, 180000 kPa, Bellows volumetry | 1033.3 ± 2.5
351.6 K, 190000 kPa, Bellows volumetry | 1036.7 ± 2.5
351.6 K, 200000 kPa, Bellows volumetry | 1040 ± 2.5
353.15 K, 100 kPa, Vibrating tube method | 952.2 ± 2.2
363.15 K, 100 kPa, Vibrating tube method | 945.4 ± 2.2
371.8 K, 10000 kPa, Bellows volumetry | 945.8 ± 2.5
371.8 K, 20000 kPa, Bellows volumetry | 952 ± 2.5
371.8 K, 30000 kPa, Bellows volumetry | 957.9 ± 2.5
371.8 K, 40000 kPa, Bellows volumetry | 963.6 ± 2.5
371.8 K, 50000 kPa, Bellows volumetry | 969 ± 2.5
371.8 K, 60000 kPa, Bellows volumetry | 974 ± 2.5
371.8 K, 70000 kPa, Bellows volumetry | 978.8 ± 2.5
371.8 K, 80000 kPa, Bellows volumetry | 983.6 ± 2.5
371.8 K, 90000 kPa, Bellows volumetry | 988.1 ± 2.5
371.8 K, 100000 kPa, Bellows volumetry | 992.4 ± 2.5
371.8 K, 110000 kPa, Bellows volumetry | 996.7 ± 2.5
371.8 K, 120000 kPa, Bellows volumetry | 1000.8 ± 2.5
371.8 K, 130000 kPa, Bellows volumetry | 1004.8 ± 2.5
371.8 K, 140000 kPa, Bellows volumetry | 1008.7 ± 2.5
371.8 K, 150000 kPa, Bellows volumetry | 1012.5 ± 2.5
371.8 K, 160000 kPa, Bellows volumetry | 1016.1 ± 2.5
371.8 K, 170000 kPa, Bellows volumetry | 1019.7 ± 2.5
371.8 K, 180000 kPa, Bellows volumetry | 1023.3 ± 2.5
371.8 K, 190000 kPa, Bellows volumetry | 1026.7 ± 2.5
371.8 K, 200000 kPa, Bellows volumetry | 1030.1 ± 2.5
373.15 K, 100 kPa, Vibrating tube method | 938.7 ± 2.2
392 K, 10000 kPa, Bellows volumetry | 932.8 ± 2.5
392 K, 20000 kPa, Bellows volumetry | 939.4 ± 2.5
392 K, 30000 kPa, Bellows volumetry | 945.7 ± 2.5
392 K, 40000 kPa, Bellows volumetry | 951.6 ± 2.5
392 K, 50000 kPa, Bellows volumetry | 957.2 ± 2.5
392 K, 60000 kPa, Bellows volumetry | 962.5 ± 2.5
392 K, 70000 kPa, Bellows volumetry | 967.6 ± 2.5
392 K, 80000 kPa, Bellows volumetry | 972.6 ± 2.5
392 K, 90000 kPa, Bellows volumetry | 977.3 ± 2.5
392 K, 100000 kPa, Bellows volumetry | 981.8 ± 2.5
392 K, 110000 kPa, Bellows volumetry | 986.3 ± 2.5
392 K, 120000 kPa, Bellows volumetry | 990.5 ± 2.5
392 K, 130000 kPa, Bellows volumetry | 994.6 ± 2.5
392 K, 140000 kPa, Bellows volumetry | 998.6 ± 2.5
392 K, 150000 kPa, Bellows volumetry | 1002.5 ± 2.5
392 K, 160000 kPa, Bellows volumetry | 1006.3 ± 2.5
392 K, 170000 kPa, Bellows volumetry | 1010 ± 2.5
392 K, 180000 kPa, Bellows volumetry | 1013.6 ± 2.5
392 K, 190000 kPa, Bellows volumetry | 1017.2 ± 2.5
392 K, 200000 kPa, Bellows volumetry | 1020.6 ± 2.5
412.1 K, 10000 kPa, Bellows volumetry | 920.1 ± 2.5
412.1 K, 20000 kPa, Bellows volumetry | 927 ± 2.5
412.1 K, 30000 kPa, Bellows volumetry | 933.7 ± 2.5
412.1 K, 40000 kPa, Bellows volumetry | 939.9 ± 2.5
412.1 K, 50000 kPa, Bellows volumetry | 945.8 ± 2.5
412.1 K, 60000 kPa, Bellows volumetry | 951.4 ± 2.5
412.1 K, 70000 kPa, Bellows volumetry | 956.7 ± 2.5
412.1 K, 80000 kPa, Bellows volumetry | 961.8 ± 2.5
412.1 K, 90000 kPa, Bellows volumetry | 966.8 ± 2.5
412.1 K, 100000 kPa, Bellows volumetry | 971.4 ± 2.5
412.1 K, 110000 kPa, Bellows volumetry | 976 ± 2.5
412.1 K, 120000 kPa, Bellows volumetry | 980.4 ± 2.5
412.1 K, 130000 kPa, Bellows volumetry | 984.7 ± 2.5
412.1 K, 140000 kPa, Bellows volumetry | 988.8 ± 2.5
412.1 K, 150000 kPa, Bellows volumetry | 992.8 ± 2.5
412.1 K, 160000 kPa, Bellows volumetry | 996.7 ± 2.5
412.1 K, 170000 kPa, Bellows volumetry | 1000.6 ± 2.5
412.1 K, 180000 kPa, Bellows volumetry | 1004.3 ± 2.5
412.1 K, 190000 kPa, Bellows volumetry | 1007.9 ± 2.5
412.1 K, 200000 kPa, Bellows volumetry | 1011.5 ± 2.5
